Data reported in publication PMC11544713, “The Application of Untargeted Metabolomic Approaches for the Search of Common Bioavailable Metabolites in Human Plasma Samples from Lippia citriodora and Olea europaea Extracts” (Journal of Agricultural and Food Chemistry, 2024).
Where a name gives a salt, the structure may show the parent alone.

Assays:
[1] = Acute intervention: nutrikinetics of plasma metabolites after ingestion of O. europaea extract (untargeted HPLC-ESI-QTOF-MS)
Summary of the method: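 Fasted healthy volunteers (n = 8 per extract, placebo n = 9, double-blind) took one 500 mg capsule. Plasma was drawn at 0–10 h, protein-precipitated with methanol:ethanol and analysed by C18 HPLC-ESI-QTOF-MS in negative full scan (m/z 50–1700). Tmax was observed; Cmax and AUC are relative, from deconvoluted peak areas.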

[2] = Acute intervention: nutrikinetics of plasma metabolites after ingestion of L. citriodora extract (untargeted HPLC-ESI-QTOF-MS)
Protocol: A total of 25 healthy individuals participated, with an average age of 27 ± 9 years and a mean body mass index (BMI) of 23 ± 3 kg/m^2. None of the participants were taking any medications or nutritional supplements nor did they have any chronic diseases or gastrointestinal issues. The sample size was established based on findings from previous bioavailability research.[14] All participants provided informed consent before participating in the study.
The intervention study was carried out at Miguel Hernández University. Following an overnight fast, the volunteers were categorized into the subsequent groups: a subgroup to evaluate the LC leaf extract (n = 8), another for the OE leaf extract (n = 8), and the placebo subgroup (n = 9). This was a double-blind study, in which sample collection and treatment were carried out uniformly across all three subgroups.
Water was provided ad libitum. Prior to the ingestion of the capsule, a nurse inserted a cannula into the ulnar vein of each volunteer’s nondominant arm, and blood samples were drawn into EDTA-coated tubes at baseline (t = 0). Blood samples were then collected at 0.5, 1, 2, 4, 6, 8, and 10 h after the consumption of the 500 mg capsule. Plasma was separated through centrifugation (10 min at 3000 rpm and 4 °C) and stored at −80 °C until further analysis.
Plasma samples were initially treated using a mixture of methanol and ethanol (50:50; v:v) to remove proteins, following previously reported protocols.[19] During the sample treatment, pooled quality controls (pooled-QC) were prepared by combining equal aliquots from each sample. These QC samples were processed by using the same protocols as the experimental biological samples.
A reversed-phase analytical C18 column (Agilent Zorbax Eclipse Plus, 1.8 μm, 4.6 × 150 mm^2) with a protective cartridge with the same packing was used. MS data were acquired in negative ionization mode, operating in full scan across a mass-to-charge ratio (m/z) range of 50–1700. The analytical method used was adapted from that described by Villegas-Aguilar et al.[19]
Metabolite nutrikinetics were studied using PKSolver, an add-in program for pharmacokinetic data analysis in Microsoft Excel. The time to reach the maximum concentration (observed Tmax) was calculated for each significant metabolite. As an untargeted metabolomic approach was used to detect the circulating metabolites, these were not quantified. Therefore, the maximum concentration (Cmax) and area under the curve (AUC) parameters were calculated in a relative way by using the deconvoluted chromatographic areas. […] Statistical differences were determined by unpaired t tests. All p values less than 0.05 were considered statistically significant.

[3] = 0.5 h after O. europaea extract
[4] = human plasma, 500 mg capsule of O. europaea (OE) extract, oral, mean ± SD
[5] = 0.5 h after L. citriodora extract
[6] = 1 h after L. citriodora extract
[7] = 2 h after L. citriodora extract
[8] = 4 h after L. citriodora extract
[9] = 6 h after L. citriodora extract
[10] = 8 h after L. citriodora extract
[11] = 10 h after L. citriodora extract
[12] = human plasma, 500 mg capsule of L. citriodora (LC) extract, oral, mean ± SD

Row | Molecule | mean chromatographic area in plasma, T0.5 [1, 3] | mean chromatographic area in plasma, T1 ([1]; 1 h after O. europaea extract) | mean chromatographic area in plasma, T2 ([1]; 2 h after O. europaea extract) | mean chromatographic area in plasma, T4 ([1]; 4 h after O. europaea extract) | mean chromatographic area in plasma, T6 ([1]; 6 h after O. europaea extract) | mean chromatographic area in plasma, T8 ([1]; 8 h after O. europaea extract) | mean chromatographic area in plasma, T10 ([1]; 10 h after O. europaea extract) | Cmax: relative maximum plasma level [1, 4] | observed Tmax: time required to reach Cmax [1, 4] [h] | mean chromatographic area in plasma, T0.5 [2, 5] | mean chromatographic area in plasma, T1 [2, 6] | mean chromatographic area in plasma, T2 [2, 7] | mean chromatographic area in plasma, T4 [2, 8] | mean chromatographic area in plasma, T6 [2, 9] | mean chromatographic area in plasma, T8 [2, 10] | mean chromatographic area in plasma, T10 [2, 11] | AUC: area under the zero-moment curve [2, 12] | Cmax: relative maximum plasma level [2, 12] | observed Tmax: time required to reach Cmax [2, 12] [h] | Cmax: relative maximum plasma level ([1]; human, in vivo, po, 500 mg) | further results
1 | COc1cc(CCO)ccc1OS(=O)(=O)O [homovanillyl alcohol sulfate] | 0 | 94 | 111 | 61 | 0 | 0 | 0 | 135 ± 32 relative chromatographic area | 2.0 ± 0.9 | 0 | 0 | 0 | 45 | 81 | 76 | 31 | 437 ± 278 relative chromatographic area/h | 156 ± 49 relative chromatographic area | 7 ± 2 | – | –
2 | COc1cc(CC(=O)O)ccc1OS(=O)(=O)O [homovanillic acid sulfate isomer 1, homovanillic acid sulfate] | – | – | – | – | – | – | – | – | – | – | – | – | – | – | – | – | – | – | – | 233 ± 69 relative chromatographic area | mean chromatographic area in plasma, T0.5 ([1]; in vivo): 65; mean chromatographic area in plasma, T1 ([1]; in vivo): 212; mean chromatographic area in plasma, T2 ([1]; in vivo): 192; mean chromatographic area in plasma, T4 ([1]; in vivo): 165; mean chromatographic area in plasma, T6 ([1]; in vivo): 119; mean chromatographic area in plasma, T8 ([1]; in vivo): 108; mean chromatographic area in plasma, T10 ([1]; in vivo): 75; AUC: area under the zero-moment curve ([2]; human, in vivo, po, 500 mg): 1391 ± 1144 relative chromatographic area/h; Cmax: relative maximum plasma level ([2]; human, in vivo, po, 500 mg): 341 ± 164 relative chromatographic area; mean chromatographic area in plasma, T0.5 ([2]; in vivo): 0; mean chromatographic area in plasma, T1 ([2]; in vivo): 0; mean chromatographic area in plasma, T2 ([2]; in vivo): 19; mean chromatographic area in plasma, T4 ([2]; in vivo): 147; mean chromatographic area in plasma, T6 ([2]; in vivo): 209; mean chromatographic area in plasma, T8 ([2]; in vivo): 221; mean chromatographic area in plasma, T10 ([2]; in vivo): 207
3 | homovanillic acid sulfate [homovanillic acid sulfate isomer 2] | – | – | – | – | – | – | – | – | – | – | – | – | – | – | – | – | – | – | – | 215 ± 68 relative chromatographic area | observed Tmax: time required to reach Cmax ([1]; human, in vivo, po, 500 mg): 4 ± 2 h; mean chromatographic area in plasma, T0.5 ([1]; in vivo): 0; mean chromatographic area in plasma, T1 ([1]; in vivo): 76; mean chromatographic area in plasma, T2 ([1]; in vivo): 161; mean chromatographic area in plasma, T4 ([1]; in vivo): 191; mean chromatographic area in plasma, T6 ([1]; in vivo): 182; mean chromatographic area in plasma, T8 ([1]; in vivo): 154; mean chromatographic area in plasma, T10 ([1]; in vivo): 130; AUC: area under the zero-moment curve ([2]; human, in vivo, po, 500 mg): 1771 ± 1599 relative chromatographic area/h; Cmax: relative maximum plasma level ([2]; human, in vivo, po, 500 mg): 476 ± 363 relative chromatographic area; observed Tmax: time required to reach Cmax ([2]; human, in vivo, po, 500 mg): 9 ± 2 h; mean chromatographic area in plasma, T0.5 ([2]; in vivo): 0; mean chromatographic area in plasma, T1 ([2]; in vivo): 0; mean chromatographic area in plasma, T2 ([2]; in vivo): 25; mean chromatographic area in plasma, T4 ([2]; in vivo): 112; mean chromatographic area in plasma, T6 ([2]; in vivo): 215; mean chromatographic area in plasma, T8 ([2]; in vivo): 336; mean chromatographic area in plasma, T10 ([2]; in vivo): 408
4 | Cc1cccc(O)c1O [3-methylcatechol] | 290 | 235 | 50 | 64 | 16 | 13 | 0 | 307 ± 160 relative chromatographic area | 0.6 ± 0.2 | 0 | 0 | 0 | 86 | 91 | 76 | 58 | 565 ± 407 relative chromatographic area/h | 169 ± 59 relative chromatographic area | 8 ± 3 | – | –
